# Values of other authors in patent publication US20110020841A1, “CENTROSOME AMPLIFICATION AS A BIOSENSOR FOR DNA DAMAGE” (National University of Ireland, Galway, priority 2006, published 2011).
# Test system: Chk1 kinase
# Conditions: inhibition of Chk1 kinase with the drug; vertebrate cells; reference 11
smiles,measurement,value
CN[C@@H]1C[C@H]2O[C@@](C)([C@@H]1OC)n1c3ccccc3c3c4c(c5c6ccccc6n2c5c31)C(=O)N[C@@H]4O [UCN-01],DNA damage-induced centrosome amplification,suppresses DNA damage-centrosome amplification
